Test results as given in patent publication EP1210336B1, “SUBSTITUTED BENZIMIDAZOLES AS NON-NUCLEOSIDE INHIBITORS OF REVERSE TRANSCRIPTASE” (THE UNITED STATES OF AMERICA, as represented by the …, priority 1999, dated 2001).
Read-outs that look alike come from different tables or passages of the source.

What was measured:
HIV-1 variant Y181C = experiment: Cytopathic cell killing assay, cross-resistance profile, infected MT-4 cells; type: cell-based; details: isolate Y181C
Outline: (§1)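 XTT formazan absorbance (450 nm) after 6 days at 37°C measured survival of HIV-1-infected MT-4 cells treated with half-log compound dilutions in triplicate. Viruses were pre-titered to equivalent infection levels and used at an MOI killing all cells by day 6.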

HIV-1 variant A98G = experiment: as above; type: cell-based
Outline: as §1

HIV-1 isolate 4xAZT = experiment: as above; type: cell-based
Outline: as §1

HIV-1 WT RT = target: T1, HIV-1 WT RT (Human immunodeficiency virus type 1 group M subtype B, UniProt P03366); details: reported by Pauwels et al. (TIBO) and Buckheit et al. (thiazolobenzimidazole); read-out: IC50 for rC:dG; cited from earlier work
T1 construct: purified RT protein (0.015 mg/mL) was incubated in a 100 µL reaction mixture

WT virus (NL4-3) = experiment: microbe, parasite or virus in culture; type: cell-based, HIV-1; details: for EC50: Human immunodeficiency virus 1, NL43, CEM-SS, read-out: EC50
Outline: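 CEM-SS cells (5 x 10^3/well) infected with HIV-1 at an MOI giving complete killing by day 6 (e.g., 0.01-0.05), with serial half-log compound dilutions in triplicate. After 6 days at 37°C, viability read by XTT reduction at 450 nm. CIC50 derived from protection against cytopathic killing.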

[1] = Human immunodeficiency virus 1, MT4, Table 4
[2] = Human immunodeficiency virus 1, MT4, Table 9
[3] = Human immunodeficiency virus 1, MT4, Table 4, isolate A98G
[4] = Human immunodeficiency virus 1, MT4, Table 8, isolate A9SG
[5] = Human immunodeficiency virus 1, MT4, Table 9, isolate A98G
[6] = Human immunodeficiency virus 1, MT4, Table 4, isolate 4xAZT
[7] = Human immunodeficiency virus 1, MT4, Table 8, isolate 4XAZT

Fc1cccc(F)c1C1SCc2nc3ccccc3n21 (stereo not drawn) [TZB, 1-(2,6-difluorophenyl)-1H,3H-thiazolo[3,4-a]benzimidazole, reference compound]
EC50 (HIV-1 variant Y181C; [1]): 16.3 µM | EC50 (HIV-1 variant Y181C; [2]): > 10 µM | EC50 (HIV-1 variant A98G; [3]): 17700 nM | EC50 (HIV-1 variant A98G; [4]): 10000 nM | EC50 (HIV-1 variant A98G; [5]): 10000 nM | EC50 (HIV-1 isolate 4xAZT; [6]): 1500 nM | EC50 (HIV-1 isolate 4xAZT; [7]): 1100 nM | IC50 (HIV-1 WT RT): 500 nM

Cc1cccc2c1nc(-c1c(F)cccc1F)n2Cc1c(F)cccc1F [compound 33, 1-(2,6-difluorobenzyl)-2-(2,6-difluorophenyl)-4-methylbenzimidazole]
EC50 (HIV-1 variant Y181C; [1]): 6 µM | EC50 (HIV-1 variant Y181C; [2]): 4.3 µM | EC50 (HIV-1 variant Y181C; Human immunodeficiency virus 1, MT4, Table 10 (values in µM)): 6 µM | EC50 (HIV-1 variant A98G; [3]): 1400 nM | EC50 (HIV-1 variant A98G; [4]): 27000 nM | EC50 (HIV-1 variant A98G; [5]): 2700 nM | EC50 (HIV-1 isolate 4xAZT; [6]): 100 nM | EC50 (HIV-1 isolate 4xAZT; [7]): 100 nM | EC50 (HIV-1 isolate 4xAZT; Human immunodeficiency virus 1, MT4, Table 9, isolate 4XAZT): 100 nM | cytotoxicity and anti-viral effect (summary graph) (WT virus (NL4-3); Figures 10-12, result in words): very effective therapeutic dose | EC50 (WT virus (NL4-3); Table 7, concentration reducing cell killing or virus production by 50%, HIV-1 WT): 440 nM | EC50 (WT virus (NL4-3); Table 11, CEMSS/NL4-3, NRVC = reduction in viral CPE not seen (footnote)): 440 nM | therapeutic index (WT virus (NL4-3); difference between efficacy of the drug and cellular toxicity, Figure 10): greater than one log in concentration
